Measured values taken from publication PMC9785202, “Changes in Disposition of Ezetimibe and Its Active Metabolites Induced by Impaired Hepatic Function: The Influence of Enzyme and Transporter Activities” (Pharmaceutics, 2022).
Like-named read-outs stand apart in the source and are kept apart here.

Assays:
[1] = design: method as in earlier work; settings: cited from earlier work
[2] = design: method as in PMID 11901097; settings: cited from earlier work
[3] = tested on: liver slices; assay: Uptake of EZE-Ph in liver slices of control and CCl4-induced rats; format: in vitro ADME, rat; settings: 10 μM EZE-Ph, 10 min
Description: Liver slices were prepared as previously described elsewhere. Rats were anesthetized and sacrificed via exsanguination from the abdominal aorta, and the livers were excised. Liver cylindrical cores of an 8 mm diameter were made before slicing. Liver slices with a thickness of 300 μm were obtained using a Krumdieck tissue slicer MD6000 (TSE systems, Chesterfield, MO) with ice-cold and carbogen-saturated Krebs–Henseleit buffer.
After 5 min of preincubation at 4 and 37 °C, the liver slices were transferred to 24-well plates containing 500 μL of buffer with 10 μM EZE-Ph for 10 min. After incubation, the liver slices were washed 3 times with ice-cold HBSS and dried on filter paper. Each liver slice was homogenized with 200 μL of purified water and the protein content was determined using a BCA protein assay kit. The concentration of EZE-Ph was determined using LC-MS/MS.

[4] = biological target: T1, OATP1B1 (Homo sapiens, UniProt Q9Y6L6); assay: Uptake of EZE-Ph into OATP1B1-transfected HEK293 cells; format: in vitro ADME
T1 construct: host or cells: HEK293
T1 sequence (Q9Y6L6 1-691): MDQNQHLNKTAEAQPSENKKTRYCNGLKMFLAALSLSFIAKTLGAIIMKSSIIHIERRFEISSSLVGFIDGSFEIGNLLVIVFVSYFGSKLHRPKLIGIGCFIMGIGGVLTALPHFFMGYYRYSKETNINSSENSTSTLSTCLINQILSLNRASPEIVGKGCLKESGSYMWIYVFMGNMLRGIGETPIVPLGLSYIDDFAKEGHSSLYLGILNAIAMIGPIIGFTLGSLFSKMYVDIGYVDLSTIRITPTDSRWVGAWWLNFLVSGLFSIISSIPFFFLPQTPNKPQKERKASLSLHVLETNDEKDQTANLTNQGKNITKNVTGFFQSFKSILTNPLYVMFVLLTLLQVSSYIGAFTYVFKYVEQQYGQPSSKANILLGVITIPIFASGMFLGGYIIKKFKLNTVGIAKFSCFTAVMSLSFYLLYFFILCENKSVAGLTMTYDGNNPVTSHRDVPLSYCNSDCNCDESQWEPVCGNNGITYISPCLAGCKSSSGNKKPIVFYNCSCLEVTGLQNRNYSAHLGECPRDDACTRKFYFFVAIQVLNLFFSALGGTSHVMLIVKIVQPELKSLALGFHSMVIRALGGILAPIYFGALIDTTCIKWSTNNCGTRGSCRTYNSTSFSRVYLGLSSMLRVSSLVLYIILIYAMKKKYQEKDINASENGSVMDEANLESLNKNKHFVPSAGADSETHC
Description: (§1) The kinetic parameters and the half inhibitory concentration (IC50) were calculated using GraphPad Prism. […] The intrinsic clearance (CLint) was calculated as CLint = Vmax/Km.

[5] = biological target: T2, OAT3 (Homo sapiens, UniProt Q8TCC7); assay: Uptake of EZE-Ph into OAT3-transfected HEK293 cells; format: in vitro ADME
T2 construct: host or cells: HEK293
T2 sequence (Q8TCC7 1-542): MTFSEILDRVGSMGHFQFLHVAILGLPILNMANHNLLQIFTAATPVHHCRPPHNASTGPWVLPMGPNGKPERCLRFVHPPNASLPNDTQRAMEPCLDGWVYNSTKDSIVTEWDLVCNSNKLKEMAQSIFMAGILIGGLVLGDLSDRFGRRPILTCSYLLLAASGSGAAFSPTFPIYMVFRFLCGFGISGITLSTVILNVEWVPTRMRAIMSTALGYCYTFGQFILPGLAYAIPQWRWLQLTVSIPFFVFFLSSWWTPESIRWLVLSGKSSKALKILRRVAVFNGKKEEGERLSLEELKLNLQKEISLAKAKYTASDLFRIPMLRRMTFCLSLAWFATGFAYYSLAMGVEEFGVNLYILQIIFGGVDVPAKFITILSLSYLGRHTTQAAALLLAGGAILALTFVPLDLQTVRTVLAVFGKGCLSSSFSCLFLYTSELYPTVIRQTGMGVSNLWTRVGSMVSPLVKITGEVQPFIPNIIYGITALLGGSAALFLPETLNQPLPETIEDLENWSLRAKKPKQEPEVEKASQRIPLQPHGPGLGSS
Description: as §1

[6] = tested on: OAT1; assay: Uptake of EZE-Ph into OAT1-transfected HEK293 cells; format: in vitro ADME, human; settings: 10 μM EZE-Ph
Description: (§2) Human OATP1B1-, OATP1B3-, OATP2B1-, OAT1-, OAT3-, or OCT2-transfected HEK293 cells and vector-transfected control cells (mock) were constructed at HD Biosciences Co., Ltd. (Shanghai, China). The functions of these transporters were evaluated using relevant positive substrates and inhibitors. Estradiol-17β-glucuronide (5 μM, OATP1B1 and OATP1B3), estrone 3-sulfate sodium salt (E3S, 5 μM, OATP2B1), para-aminohippuric acid (PAH, 20 μM, OAT1), furosemide (5 μM, OAT3), and 1-methyl-4-phenyl pyridinium (MPP^+, 5 μM, OCT2) were used as substrates for the transporters. […] The cells (50,000 per well) were cultured in Dulbecco’s modified Eagle’s medium (containing 10% fetal bovine serum, 1% GlutaMAX-I, 1% penicillin G/streptomycin, and 1% nonessential amino acids) on poly-D-lysine-coated 96-well plates at 37 °C in an atmosphere of 5% CO2.
(§3) The cells were rinsed three times with HBSS (37 °C) and then equilibrated in HBSS for 10 min. […] The protein content was measured using a BCA protein assay kit. The concentrations of EZE and EZE-Ph were determined using LC-MS/MS.
(§4) The rates of substrate uptake were normalized using the protein contents of cell lysates. The net uptake via transporters was calculated by subtracting the uptake in vector-transfected HEK293 cells (or uptake into hepatocytes at 4 °C) from that in transporter-transfected HEK293 cells (or uptake into hepatocytes at 37 °C).

[7] = tested on: OCT2; assay: Uptake of EZE-Ph into OCT2-transfected HEK293 cells; format: in vitro ADME, human; settings: 10 μM EZE-Ph
Description: as §2, §3, §4

[8] = design: method as in PMID 10780982; settings: intraduodenal administration of EZE; cited from earlier work
[9] = biological target: T3, OATP1B3 (Homo sapiens, UniProt Q9NPD5); assay: Uptake of EZE-Ph into OATP1B3-transfected HEK293 cells; format: in vitro ADME; design: host or cells: HEK293
T3 sequence (Q9NPD5 1-702): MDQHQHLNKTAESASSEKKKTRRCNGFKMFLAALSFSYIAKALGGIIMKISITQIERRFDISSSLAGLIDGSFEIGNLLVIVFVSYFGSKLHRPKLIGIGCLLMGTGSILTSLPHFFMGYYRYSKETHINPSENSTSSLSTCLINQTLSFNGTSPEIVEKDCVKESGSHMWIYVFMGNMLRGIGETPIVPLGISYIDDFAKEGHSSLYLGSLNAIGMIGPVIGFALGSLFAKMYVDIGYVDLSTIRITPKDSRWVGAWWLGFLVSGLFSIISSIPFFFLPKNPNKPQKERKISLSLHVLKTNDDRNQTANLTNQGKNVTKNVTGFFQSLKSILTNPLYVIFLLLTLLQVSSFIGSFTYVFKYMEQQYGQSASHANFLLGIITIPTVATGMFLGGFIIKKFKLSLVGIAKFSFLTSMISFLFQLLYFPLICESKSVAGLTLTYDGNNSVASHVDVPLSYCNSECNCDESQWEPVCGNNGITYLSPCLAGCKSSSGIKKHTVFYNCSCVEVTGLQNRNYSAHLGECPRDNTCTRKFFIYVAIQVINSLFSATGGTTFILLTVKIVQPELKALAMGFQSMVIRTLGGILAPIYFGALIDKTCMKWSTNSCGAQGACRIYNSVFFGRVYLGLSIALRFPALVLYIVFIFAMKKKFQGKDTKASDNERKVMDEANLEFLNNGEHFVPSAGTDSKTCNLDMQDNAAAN
Description: as §1

[10] = OATP1B3 HEK293, uptake time 5 min

O=C1[C@H](CC[C@H](O)c2ccc(F)cc2)[C@@H](c2ccc(O)cc2)N1c1ccc(F)cc1 [EZE, 1-(4-fluorophenyl)-3(R)-[3-(4-fluorophenyl)-3(S)-hydroxypropyl]-4(S)-(4-hydroxyphenyl)-2-azetidinone, reference compound]
plasma exposure, fold higher than in healthy subjects ([1]; mild CLD patients): 1.4 fold | plasma exposure, fold higher than in healthy subjects ([1]; moderate CLD patients): 5.8 fold | plasma exposure, fold higher than in healthy subjects ([1]; severe CLD patients): 4.8 fold | share of the EZE-related material in human plasma [2]: 10–20%

O=C(O)[C@H]1O[C@@H](Oc2ccc([C@@H]3[C@@H](CC[C@H](O)c4ccc(F)cc4)C(=O)N3c3ccc(F)cc3)cc2)[C@H](O)[C@@H](O)[C@@H]1O [EZE-Ph, ezetimibe phenoxy β-D-glucuronide]
EZE-Ph uptake in liver slices, 37 °C vs 4 °C [3]: significantly greater at 37 °C than 4 °C | EZE-Ph uptake in liver slices, control vs CCl4-induced rats [3]: no significant difference | uptake in transporter-transfected cells relative to mock-transfected cells ([4]; 10 μM EZE-Ph, OATP1B1 HEK293): 5.3 times | CLint ([4]; OATP1B1 HEK293, CLint = Vmax/Km): 0.56 μL/min/mg Protein | Kinetic Model ([4]; OATP1B1 HEK293, uptake time 5 min): Substrate inhibition | uptake in transporter-transfected cells relative to mock-transfected cells ([5]; 10 μM EZE-Ph, OAT3 HEK293): 8.9 times | CLint ([5]; OAT3 HEK293, CLint = Vmax/Km): 1.84 μL/min/mg Protein | h (Hill slope) ([5]; OAT3 HEK293, allosteric sigmoidal model): 1.19 | Kinetic Model ([5]; OAT3 HEK293, uptake time 5 min): Allosteric sigmoidal | uptake in transporter-transfected cells relative to mock-transfected cells [6]: less than twice | uptake in transporter-transfected cells relative to mock-transfected cells [7]: less than twice | EZE-Ph generated in the intestine [8]: > 95% | uptake in transporter-transfected cells relative to mock-transfected cells ([9]; 10 μM EZE-Ph, OATP1B3 HEK293): 56 times | CLint ([9]; OATP1B3 HEK293, CLint = Vmax/Km): 6.73 μL/min/mg Protein | Kinetic Model [9, 10]: Substrate inhibition | Vmax [9, 10]: 134 pmol/min/mg Protein | Km at 5 min ([9]; human, OATP1B3-transfected HEK293 cells, OATP1B3 HEK293, uptake time 5 min): 19.9 µM
